Results on six molecules are retold here after ChEMBL document CHEMBL4814030, “Optimization of ether and aniline based inhibitors of lactate dehydrogenase” (Bioorg Med Chem Lett, 2021).

In brackets after ≈: the same amount, converted by molar mass.

A short description of data set [1]: Metabolic stability in rat microsomes assessed as half life. The class given is ADME, Microsome.
The target of data set [2] is T1, L-lactate dehydrogenase A chain (Homo sapiens, UniProt P00338). The experiment in a line: Inhibition of recombinant human LDHA using sodium pyruvate as substrate preincubated for 5 mins followed by diaphorase/resazurin addition and measured after 20 mins by fluorescence based assay. (The colour change of resazurin is a common sign of viable cells or microbes.)
The target of data set [3] is T1, L-lactate dehydrogenase A chain. The data set is described as follows: Inhibition of LDHA in human MIA PaCa2 cells assessed as reduction in lactate production incubated for 2 hrs by fluorescence based assay. Format: cell-based, MIA PaCa-2.
The test system of another data set is MIA PaCa-2. The data set is described as follows: Cytotoxicity against human MIA PaCa-2 cells assessed as reduction in cell viability incubated for 48 hrs by cell titer glo assay. The class given is functional, cell-based. To be noted: MIA PaCa-2, 48 h.
In data set [4] the target is T1, L-lactate dehydrogenase A chain. The data set is described as follows: Binding affinity to LDHA (unknown origin) by SPR analysis. In general terms: In SPR one partner is held on a chip, and binding of the other changes the refractive index at the surface.
Data set [5] in a line: Kinetic solubility of compound. The class given is physicochemical. To be noted: read-out: Kinetic_solubility.
In data set [6] the target is T1, L-lactate dehydrogenase A chain. The data set is described as follows: Inhibition of LDHA in human A673 cells assessed as reduction in lactate production incubated for 2 hrs by fluorescence based assay. The class given is cell-based.
Data set [7] can be described thus: Permeability of compound by PAMPA. The class given is ADME. To be noted: read-out: permeability. Background: The PAMPA barrier holds no transporters, so it reflects passive diffusion.
The subject of another data set is A673. The experiment in a line: Cytotoxicity against human A673 cells assessed as reduction in cell viability incubated for 48 hrs by cell titer glo assay. The class given is functional, cell-based. To be noted: A673, 48 h.

Turning to `NS(=O)(=O)c1ccc(Cc2c(-c3cccc(N4CCOCC4)c3)nn(-c3nc(C(=O)O)cs3)c2CC2CC2)cc1F`, the t1/2 in data set [1] is on record as above 30 min. In addition, the IC50 in data set [2] was 27 nM; in data set [3], 23400 nM; with MIA PaCa-2, 18700 nM; in data set [6] it was 9400 nM; in the data set with A673 it was 20400 nM. In [4], this molecule registered a dissociation constant (Kd) of 0.44 nM. For the same molecule, the solubility kinetic in data set [5] was above 88 µg/mL. Also, the Papp in [7] is 1.6 ×10⁻⁶ cm/s.

Take `NS(=O)(=O)c1ccc(Cc2c(-c3ccc(F)c(OCc4ccc(C(F)(F)F)o4)c3)nn(-c3nc(C(=O)O)cs3)c2CC2CC2)cc1F`: the t1/2 in data set [1] is listed as above 30 min. For the same molecule, the IC50 turned out to be 23 nM in [2]; 1000 nM in data set [3]; 2100 nM in the data set on MIA PaCa-2; 1100 nM in data set [6]; 440 nM in the data set with A673. This molecule also yielded a dissociation constant (Kd) in data set [4] of 0.001 nM. For the same molecule, the solubility kinetic in data set [5] came out at 53.2 µg/mL (≈ 76.6 µM). The Papp in data set [7] came to 12 ×10⁻⁶ cm/s.

Turning to `NS(=O)(=O)c1ccc(Cc2c(-c3cccc(OCc4ccccc4)c3)nn(-c3nc(C(=O)O)cs3)c2CC2CC2)cc1F`, the t1/2 in [1] amounted to 2.8 min. The half-maximal inhibitory concentration (IC50) came to 19 nM in data set [2]; 690 nM in [3]; 1400 nM in the data set on MIA PaCa-2; 590 nM in [6]; 420 nM with A673. The dissociation constant (Kd) in data set [4] is 0.016 nM. For the same molecule, the solubility kinetic in [5] turned out to be 72.4 µg/mL (≈ 117 µM). The Papp in data set [7] was determined as 1.1 ×10⁻⁶ cm/s.

Consider `Cc1ccc(Oc2cc(-c3nn(-c4nc(C(=O)O)cs4)c(CC4CC4)c3Cc3ccc(S(N)(=O)=O)c(F)c3)ccc2F)cc1`, for which the t1/2 in data set [1] is on record as 6.2 min. Further, the half-inhibitory concentration (IC50) came out at 26 nM in data set [2]; 870 nM in data set [3]; 2100 nM with MIA PaCa-2; 550 nM in [6]; 550 nM with A673. For the same molecule, the equilibrium dissociation constant (Kd) in data set [4] is 1.1 nM. The solubility kinetic in data set [5] turned out to be 24 µg/mL (≈ 37.7 µM). In addition, in [7], the Papp was 13 ×10⁻⁶ cm/s.

With `NS(=O)(=O)c1ccc(Cc2c(-c3ccc(F)c(OCc4cccc(F)c4)c3)nn(-c3nc(C(=O)O)cs3)c2CC2CC2)cc1F`, in data set [1], the t1/2 is given as below 1 min. In addition, the concentration for half-maximal inhibition (IC50) in data set [2] worked out at 22 nM; in data set [3], 670 nM; with MIA PaCa-2, 2100 nM; in data set [6], 730 nM; with A673, 550 nM. The molecule further yielded a dissociation constant (Kd) in data set [4] of 0.91 nM. Moreover, the solubility kinetic in data set [5] was 10.7 µg/mL (≈ 16.3 µM). Moreover, the Papp in data set [7] turned out to be 2.9 ×10⁻⁶ cm/s.

As for `NS(=O)(=O)c1ccc(Cc2c(-c3cccc(Nc4ccccc4)c3)nn(-c3nc(C(=O)O)cs3)c2CC2CC2)cc1`, the t1/2 in data set [1] stood at 6 min. The half-maximal inhibitory concentration (IC50) was determined as 314 nM in data set [2]; 6700 nM in data set [3]; 21200 nM in the data set on MIA PaCa-2; 3100 nM in data set [6]; 34500 nM in the data set with A673. This molecule also gave an equilibrium dissociation constant (Kd) in data set [4] of 1.5 nM. Besides, the solubility kinetic in data set [5] is 49.3 µg/mL (≈ 84.2 µM). Moreover, the Papp in data set [7] came to 4.4 ×10⁻⁶ cm/s.

Broadly, the IC50 is the concentration that inhibits the measured activity by half. For orientation: Kd means a measure of binding affinity in units of concentration.
